Patent publication US20230203095A1, “BIOLOGICAL PEPTIDE FOR TREATING LUNG DISEASES AND APPLICATION THEREOF” (SHANGHAI INSTITUTE OF PHARMACEUTICAL INDUSTRY CO., LTD., priority 2019, published 2023)
“And” between values parts separate entries of the source, which are not always exact repeats. Equal entries are not always repeated. Peptide text beside a SMILES is read from it. * marks the point of attachment. X1 = CC(=O)N[C@H]1C(*)O[C@H](CO)[C@@H](O)[C@@H]1O

Experiment: Plasma drug concentrations and pharmacokinetics after a single intravenous or subcutaneous injection of SIPI-G9 in SD rats
Conditions: for level at 3 h: 180 min; for level at 4 h: 240 min; for clearance: CL; for MRT last: MRT0-t
Experimental: Routes: single back subcutaneous injection and single tail vein injection;
Orbital blood was collected at different time points before and after administration. […] High concentration samples were diluted with blank plasma.
Column: SHIM-PACK GISS C18 (2.1 × 100 mm, 1.9 µm); injection volume: 20 µL; mobile phase: phase A: 0.2% acetic acid in water; phase B: methanol, gradient elution (see Table 16 for details);
The ion source is electrospray ionization source (ESI); the drying gas (N2) temperature is 550° C.; the electrospray voltage is 5500 V; the detection method is positive ion detection; the scanning method is the selective reaction monitoring (MRM) method, and the scanning time is 0.15 s.
50 µL plasma was taken and 5 µL internal standard solution (DX07 (His-Leu-Glu-Thr-Glu-Leu-His) 100 ng/mL) was added. After that, 150 µL of methanol was added to precipitate proteins, then centrifuged at 13,000 rpm for 5 min, and 160 µL supernatant was taken and dried with 40° C. N2, then reconstituted with 75 µL of 0.1% formic acid aqueous solution.
Pharmacokinetic parameters were calculated using the non-compartmental model of DAS 2.0 software. Both Cmax and Tmax are measured values; AUC, T½, CL and Vz are calculated by DAS 2.0.

[1] = SIPI-G9 1 mg/kg i.v., SD rats, individual rats, 1 mg/kg
[2] = male, SD, rat, plasma, sc, 5 mg/kg, Plasma G-9 concentration, Mean, SIPI-G9 5 mg/kg s.c., SD rats, n=3
[3] = male, SD, rat, plasma, sc, 5 mg/kg, Plasma G-9 concentration, SIPI-G9 5 mg/kg single subcutaneous injection, SD rats, individual rats
[4] = rat, in vivo, iv, 1 mg/kg, Mean
[5] = rat, in vivo, sc, 5 mg/kg, Mean

With `CC(=O)N[C@H]1C(OC[C@H](NC(=O)[C@@H](NC(=O)[C@H](Cc2ccc(O)cc2)NC(=O)[C@@H](NC(=O)[C@H](CCC(N)=O)NC(=O)CN)[C@@H](C)OC2O[C@H](CO)[C@@H](O)[C@H](O)[C@H]2NC(C)=O)[C@@H](C)O)C(=O)NCC(=O)O)O[C@H](CO)[C@@H](O)[C@@H]1O` (some centres unmarked) [SIPI-G9, GQT(Glc)YTS(Glc)G] (H-GQT(X1)YTS(X1)G-OH) the T1/2 [1] was 8.50 min and 7.50 min, the Vd [1] was 2.23 L/kg and 1.29 L/kg and the “Plasma G-9 concentration” value (SIPI-G9 1 mg/kg single intravenous injection, SD rats, 3 min, individual rats, 1 mg/kg) was 714 ng/mL and 573 ng/mL and 737 ng/mL. The “Plasma G-9 concentration” value (SIPI-G9 1 mg/kg single intravenous injection, SD rats, 6 min, individual rats, 1 mg/kg) was 265 ng/mL and 231 ng/mL and 295 ng/mL, the “Plasma G-9 concentration” value (SIPI-G9 1 mg/kg single intravenous injection, SD rats, 10 min, individual rats, 1 mg/kg) was 124 ng/mL and 120 ng/mL and 377 ng/mL and the “Plasma G-9 concentration” value (SIPI-G9 1 mg/kg single intravenous injection, SD rats, 20 min, individual rats, 1 mg/kg) was 33.5 ng/mL and 31.6 ng/mL and 80.0 ng/mL. For the same compound, the “Plasma G-9 concentration” value (SIPI-G9 1 mg/kg single intravenous injection, SD rats, 40 min, individual rats, 1 mg/kg) was 6.09 ng/mL and 5.68 ng/mL and 6.78 ng/mL, the “Plasma G-9 concentration” value (SIPI-G9 1 mg/kg single intravenous injection, SD rats, 60 min, individual rats, 1 mg/kg) was 1.33 ng/mL and 1.21 ng/mL and 2.00 ng/mL and the “Plasma G-9 concentration” value (SIPI-G9 5 mg/kg single subcutaneous injection, SD rats, 0 min, individual rats) was 0 ng/mL. For the same compound, the “Plasma G-9 concentration” value (SIPI-G9 5 mg/kg single subcutaneous injection, SD rats, 40 min, individual rats, 5 mg/kg) was 229 ng/mL, the “Plasma G-9 concentration” value (SIPI-G9 5 mg/kg single subcutaneous injection, SD rats, 120 min, individual rats, 5 mg/kg) was 28.5 ng/mL and 33.5 ng/mL and 24.5 ng/mL and the AUC(0-t) (male, SD, rat, in vivo, iv, 1 mg/kg) was 114 ng·h/mL. It also gave an AUC(0-t) (male, SD, rat, in vivo, sc, 5 mg/kg) of 490 ng·h/mL, a level at 0.05 h (male, SD, rat, plasma, iv, 1 mg/kg, Plasma G-9 concentration, Mean, SIPI-G9 1 mg/kg i.v., SD rats, 3 min, n=3) of 675 ng/mL and a level at 0.1 h (male, SD, rat, plasma, iv, 1 mg/kg, Plasma G-9 concentration, Mean, SIPI-G9 1 mg/kg i.v., SD rats, 6 min, n=3) of 264 ng/mL. It also gave a level at 10 min (male, SD, rat, plasma, iv, 1 mg/kg, Plasma G-9 concentration, Mean, SIPI-G9 1 mg/kg i.v., SD rats, 10 min, n=3) of 207 ng/mL, a level at 20 min (male, SD, rat, plasma, iv, 1 mg/kg, Plasma G-9 concentration, Mean, SIPI-G9 1 mg/kg i.v., SD rats, 20 min, n=3) of 48.4 ng/mL and a level at 40 min (male, SD, rat, plasma, iv, 1 mg/kg, Plasma G-9 concentration, Mean, SIPI-G9 1 mg/kg i.v., SD rats, 40 min, n=3) of 6.18 ng/mL. The level at 1 h (male, SD, rat, plasma, iv, 1 mg/kg, Plasma G-9 concentration, Mean, SIPI-G9 1 mg/kg i.v., SD rats, 60 min, n=3) was 1.51 ng/mL, the level at 0.05 h (male, SD, rat, plasma, sc, 5 mg/kg, Plasma G-9 concentration, Mean, SIPI-G9 5 mg/kg s.c., SD rats, 3 min, n=3) was 699 ng/mL and the level at 0.1 h (male, SD, rat, plasma, sc, 5 mg/kg, Plasma G-9 concentration, Mean, SIPI-G9 5 mg/kg s.c., SD rats, 6 min, n=3) was 1020 ng/mL. The level at 10 min (male, SD, rat, plasma, sc, 5 mg/kg, Plasma G-9 concentration, Mean, SIPI-G9 5 mg/kg s.c., SD rats, 10 min, n=3) was 796 ng/mL, the level at 20 min (male, SD, rat, plasma, sc, 5 mg/kg, Plasma G-9 concentration, Mean, SIPI-G9 5 mg/kg s.c., SD rats, 20 min, n=3) was 408 ng/mL and the level at 40 min (male, SD, rat, plasma, sc, 5 mg/kg, Plasma G-9 concentration, Mean, SIPI-G9 5 mg/kg s.c., SD rats, 40 min, n=3) was 228 ng/mL. The level at 1 h (male, SD, rat, plasma, sc, 5 mg/kg, Plasma G-9 concentration, Mean, SIPI-G9 5 mg/kg s.c., SD rats, 60 min, n=3) was 131 ng/mL, the level at 2 h (male, SD, rat, plasma, sc, 5 mg/kg, Plasma G-9 concentration, Mean, SIPI-G9 5 mg/kg s.c., SD rats, 120 min, n=3) was 28.8 ng/mL and the level at 3 h [2] was 6.01 ng/mL. For the same compound, the level at 4 h [2] was 0.708 ng/mL, the level at 0.05 h (male, SD, rat, plasma, sc, 5 mg/kg, Plasma G-9 concentration, SIPI-G9 5 mg/kg single subcutaneous injection, SD rats, 3 min, individual rats) was 758 ng/mL and the level at 0.1 h (male, SD, rat, plasma, sc, 5 mg/kg, Plasma G-9 concentration, SIPI-G9 5 mg/kg single subcutaneous injection, SD rats, 6 min, individual rats) was 904 ng/mL. It also gave a level at 10 min (male, SD, rat, plasma, sc, 5 mg/kg, Plasma G-9 concentration, SIPI-G9 5 mg/kg single subcutaneous injection, SD rats, 10 min, individual rats) of 633 ng/mL, a level at 20 min (male, SD, rat, plasma, sc, 5 mg/kg, Plasma G-9 concentration, SIPI-G9 5 mg/kg single subcutaneous injection, SD rats, 20 min, individual rats) of 324 ng/mL and a level at 40 min (male, SD, rat, plasma, sc, 5 mg/kg, Plasma G-9 concentration, SIPI-G9 5 mg/kg single subcutaneous injection, SD rats, 40 min, individual rats) of 230 ng/mL. It also gave a level at 1 h (male, SD, rat, plasma, sc, 5 mg/kg, Plasma G-9 concentration, SIPI-G9 5 mg/kg single subcutaneous injection, SD rats, 60 min, individual rats) of 118 ng/mL, a level at 3 h [3] of 6.6 ng/mL and a level at 4 h [3] of 0.807 ng/mL. For the same compound, the “Fa (absolute bioavailability)” value (rat, in vivo) was 96.6%, the bioavailability (rat, in vivo, Fa (absolute bioavailability)) was 79.2% and the clearance (rat, in vivo, iv, 1 mg/kg) was 151 mL/min/kg. The clearance [4] was 151 mL/min/kg, the Cmax (rat, in vivo, iv, 1 mg/kg) was 714 ng/mL and the Cmax [4] was 675 ng/mL. It also gave an MRT last (rat, in vivo, iv, 1 mg/kg) of 5.49 min, an MRT last [4] of 6.63 min and a half-life (rat, in vivo, iv, 1 mg/kg, T1/2, Mean, SIPI-G9 1 mg/kg i.v., SD rats, n=3) of 8.2 min. It also gave a half-life (rat, in vivo, iv, 1 mg/kg, T1/2, SIPI-G9 1 mg/kg i.v., SD rats, individual rats) of 8.59 min, a Tmax (rat, in vivo, iv, 1 mg/kg) of 3 min and a Tmax [4] of 3 min. The Vd (rat, in vivo, iv, 1 mg/kg, Vd, Mean, SIPI-G9 1 mg/kg i.v., SD rats, n=3) was 1.8 L/kg, the Vd (rat, in vivo, iv, 1 mg/kg, Vd, SIPI-G9 1 mg/kg i.v., SD rats, individual rats) was 1.87 L/kg and the Cmax (rat, in vivo, sc, 5 mg/kg) was 904 ng/mL. For the same compound, the Cmax [5] was 1020 ng/mL, the MRT last (rat, in vivo, sc, 5 mg/kg) was 34.3 min and the MRT last [5] was 33.9 min. The Tmax (rat, in vivo, sc, 5 mg/kg) was 6 min and the Tmax [5] was 7 min.
